Results published in the NIST ThermoML archive (doi:10.1016/j.tca.2011.12.021).
± gives the expanded uncertainty stated by the source.

Columns and labels:
[1] = 101.3 kPa, Crystal, Hot wire method
[2] = wn = mass fraction of the nth substance listed; conditions: 101 kPa, Crystal, Hot wire method

CC(C)(CO)CO [2,2-dimethyl-1,3-propanediol]
[1]
Conditions	thermal conductivity [W/m/K]
323 K	0.4 ± 0.01
333 K	0.38 ± 0.01
343 K	0.36 ± 0.01
353 K	0.33 ± 0.01
363 K	0.32 ± 0.01
373 K	0.29 ± 0.01
383 K	0.3 ± 0.01
393 K	0.31 ± 0.01

CC(C)(CO)CO [2,2-dimethyl-1,3-propanediol] + CC1(C)[C@@H]2CC[C@@]1(C)C(=O)C2
[2]
Conditions	thermal conductivity [W/m/K]
298 K, w2 = 0.7	0.35 ± 0.01
303 K, w2 = 0.03	0.38 ± 0.01
303 K, w2 = 0.3	0.37 ± 0.01
303 K, w2 = 0.7	0.34 ± 0.01
303 K, w2 = 0.96	0.3 ± 0.01
308 K, w2 = 0.3	0.36 ± 0.01
308 K, w2 = 0.7	0.34 ± 0.01
313 K, w2 = 0.03	0.37 ± 0.01
313 K, w2 = 0.3	0.35 ± 0.01
313 K, w2 = 0.7	0.33 ± 0.01
313 K, w2 = 0.96	0.3 ± 0.01
315 K, w2 = 0.7	0.33 ± 0.01
317 K, w2 = 0.7	0.33 ± 0.01
318 K, w2 = 0.3	0.34 ± 0.01
319 K, w2 = 0.7	0.32 ± 0.01
321 K, w2 = 0.7	0.32 ± 0.01
323 K, w2 = 0	0.4 ± 0.01
323 K, w2 = 0.03	0.36 ± 0.01
323 K, w2 = 0.3	0.33 ± 0.01
323 K, w2 = 0.7	0.32 ± 0.01
323 K, w2 = 0.96	0.3 ± 0.01
325 K, w2 = 0.7	0.31 ± 0.01
328 K, w2 = 0.3	0.32 ± 0.01
328 K, w2 = 0.7	0.31 ± 0.01
333 K, w2 = 0	0.38 ± 0.01
333 K, w2 = 0.03	0.35 ± 0.01
333 K, w2 = 0.3	0.31 ± 0.01
333 K, w2 = 0.7	0.31 ± 0.01
333 K, w2 = 0.96	0.29 ± 0.01
338 K, w2 = 0.7	0.31 ± 0.01
343 K, w2 = 0	0.36 ± 0.01
343 K, w2 = 0.03	0.34 ± 0.01
343 K, w2 = 0.7	0.31 ± 0.01
343 K, w2 = 0.96	0.29 ± 0.01
348 K, w2 = 0.7	0.3 ± 0.01
353 K, w2 = 0	0.33 ± 0.01
353 K, w2 = 0.03	0.32 ± 0.01
353 K, w2 = 0.7	0.3 ± 0.01
353 K, w2 = 0.96	0.29 ± 0.01
358 K, w2 = 0.7	0.29 ± 0.01
363 K, w2 = 0	0.32 ± 0.01
363 K, w2 = 0.7	0.28 ± 0.01
363 K, w2 = 0.96	0.28 ± 0.01
373 K, w2 = 0	0.29 ± 0.01
373 K, w2 = 0.96	0.28 ± 0.01
383 K, w2 = 0	0.3 ± 0.01
383 K, w2 = 0.96	0.28 ± 0.01
393 K, w2 = 0	0.31 ± 0.01
393 K, w2 = 0.96	0.27 ± 0.01
403 K, w2 = 0.96	0.27 ± 0.01
413 K, w2 = 0.96	0.26 ± 0.01
423 K, w2 = 0.96	0.26 ± 0.01
433 K, w2 = 0.96	0.25 ± 0.01
